From PMC5218480 (PLoS ONE, 2017)

System: MV-4-11 cells
Assay: Gene expression microarray analysis (Affymetrix PrimeView) and GSEA
Type: cell-based, human
Set-up: RFU PODN (11730768_x_at) / Fold change /veh PODN (11730768_x_at) / RFU LINC00158 (11744669_a_at) / Fold change /veh LINC00158 (11744669_a_at) / RFU DUSP10 (11751237_a_at) / Fold change /veh DUSP10 (11751237_a_at) / RFU ID3 (11757404_x_at) / Fold change /veh ID3 (11757404_x_at) / RFU PLEKHG5 (11737974_s_at) / Fold change /veh PLEKHG5 (11737974_s_at) / RFU LRRC4B (11730491_at) / Fold change /veh LRRC4B (11730491_at) / RFU GIMAP4 (11747438_a_at) / Fold change /veh GIMAP4 (11747438_a_at) / RFU KRT8 (11758183_x_at) / Fold change /veh KRT8 (11758183_x_at) / RFU CNN1 (11734310_a_at) / Fold change /veh CNN1 (11734310_a_at) / RFU VPS37D (11726825_at) / Fold change /veh VPS37D (11726825_at) / RFU C10orf10 (11716522_x_at) / Fold change /veh C10orf10 (11716522_x_at) / RFU KIR2DL2 /// KIR2DL4 /// KIR2DL5A /// KIR2DL5B /// KIR2DS1 /// KIR2DS2 /// KIR2DS3 /// KIR2DS4 /// KIR3DL3 /// KIR3DL3 /// KIR3DS1 (11738374_at) / Fold change /veh KIR2DL2 /// KIR2DL4 /// KIR2DL5A /// KIR2DL5B /// KIR2DS1 /// KIR2DS2 /// KIR2DS3 /// KIR2DS4 /// KIR3DL3 /// KIR3DL3 /// KIR3DS1 (11738374_at) / RFU C1QL1 (11718748_at) / Fold change /veh C1QL1 (11718748_at) / RFU TMPRSS4 (11747572_a_at) / Fold change /veh TMPRSS4 (11747572_a_at) / RFU HAMP (11756126_x_at) / Fold change /veh HAMP (11756126_x_at) / RFU RNFT2 (11725882_a_at) / Fold change /veh RNFT2 (11725882_a_at) / RFU NR4A2 (11747474_a_at) / Fold change /veh NR4A2 (11747474_a_at) / RFU ABCC12 (11746883_a_at) / Fold change /veh ABCC12 (11746883_a_at) / RFU TMEM136 (11760407_x_at) / Fold change /veh TMEM136 (11760407_x_at) / RFU CLDN22 /// WWC2 (11732394_at) / Fold change /veh CLDN22 /// WWC2 (11732394_at) / RFU HLA-DPB1 (11760878_x_at) / Fold change /veh HLA-DPB1 (11760878_x_at) / RFU SPINT1 (11716480_a_at) / Fold change /veh SPINT1 (11716480_a_at) / RFU GAP43 (11754022_s_at) / Fold change /veh GAP43 (11754022_s_at) / RFU A4GNT (11735810_at) / Fold change /veh A4GNT (11735810_at) / RFU PRB3 (11715151_x_at) / Fold change /veh PRB3 (11715151_x_at) / RFU TUBB4B (11761932_at) / Fold change /veh TUBB4B (11761932_at) / RFU CAPN14 (11732068_a_at) / Fold change /veh CAPN14 (11732068_a_at) / RFU TMCC2 (11721928_a_at) / Fold change /veh TMCC2 (11721928_a_at) / RFU IRGQ (11745062_a_at) / Fold change /veh IRGQ (11745062_a_at) / RFU FAM174B (11720279_a_at) / Fold change /veh FAM174B (11720279_a_at) / RFU TMPRSS4 (11748680_a_at) / Fold change /veh TMPRSS4 (11748680_a_at) / RFU FAM212B (11763350_a_at) / Fold change /veh FAM212B (11763350_a_at) / RFU PLEKHG5 (11743358_a_at) / Fold change /veh PLEKHG5 (11743358_a_at) / RFU ZSCAN30 (11745921_a_at) / Fold change /veh ZSCAN30 (11745921_a_at) / RFU CMKLR1 (11741424_a_at) / Fold change /veh CMKLR1 (11741424_a_at) / RFU LOC101060620 /// MAPK8IP1 (11723275_at) / Fold change /veh LOC101060620 /// MAPK8IP1 (11723275_at) / RFU SPTSSB (11747773_x_at) / Fold change /veh SPTSSB (11747773_x_at) / RFU PRSS12 (11739890_at) / Fold change /veh PRSS12 (11739890_at) / RFU BIN1 (11741810_x_at) / Fold change /veh BIN1 (11741810_x_at) / RFU WNT11 (11732464_a_at) / Fold change /veh WNT11 (11732464_a_at) / RFU C10orf10 (11716521_a_at) / Fold change /veh C10orf10 (11716521_a_at) / RFU C5orf56 (11738089_at) / Fold change /veh C5orf56 (11738089_at) / RFU CYB561 (11721691_x_at) / Fold change /veh CYB561 (11721691_x_at) / RFU ANKRD19P (11752326_a_at) / Fold change /veh ANKRD19P (11752326_a_at) / RFU OR2T12 /// OR2T33 /// OR2T8 (11738714_s_at) / Fold change /veh OR2T12 /// OR2T33 /// OR2T8 (11738714_s_at) / RFU VCAN (11748164_a_at) / Fold change /veh VCAN (11748164_a_at) / RFU JSRP1 (11732532_at) / Fold change /veh JSRP1 (11732532_at) / RFU KRTAP10-11 (11738290_x_at) / Fold change /veh KRTAP10-11 (11738290_x_at) / RFU MYO3A (11730013_a_at) / Fold change /veh MYO3A (11730013_a_at) / RFU EBF3 (11725865_a_at) / Fold change /veh EBF3 (11725865_a_at) / RFU CAMK2N1 (11719241_x_at) / Fold change /veh CAMK2N1 (11719241_x_at) / RFU C5orf56 (11738088_a_at) / Fold change /veh C5orf56 (11738088_a_at) / RFU OLFML3 (11715873_a_at) / Fold change /veh OLFML3 (11715873_a_at) / RFU LOC100653217 /// NTM (11731650_a_at) / Fold change /veh LOC100653217 /// NTM (11731650_a_at) / RFU MAPK11 (11762145_a_at) / Fold change /veh MAPK11 (11762145_a_at) / RFU FIZ1 (11724087_x_at) / Fold change /veh FIZ1 (11724087_x_at) / RFU OASL (11726364_x_at) / Fold change /veh OASL (11726364_x_at) / RFU SOX15 (11748057_x_at) / Fold change /veh SOX15 (11748057_x_at) / RFU CD79A (11719716_a_at) / Fold change /veh CD79A (11719716_a_at) / RFU HIST1H1D (11736915_at) / Fold change /veh HIST1H1D (11736915_at) / RFU CASKIN2 (11723855_a_at) / Fold change /veh CASKIN2 (11723855_a_at) / RFU LOC730098 (11760151_x_at) / Fold change /veh LOC730098 (11760151_x_at) / RFU OR4N2 (11742367_at) / Fold change /veh OR4N2 (11742367_at) / RFU PRRT2 (11749266_a_at) / Fold change /veh PRRT2 (11749266_a_at) / RFU SNX32 (11753110_a_at) / Fold change /veh SNX32 (11753110_a_at) / RFU CDHR5 (11726645_a_at) / Fold change /veh CDHR5 (11726645_a_at) / RFU RCAN1 (11760418_a_at) / Fold change /veh RCAN1 (11760418_a_at) / RFU FAM167A (11723789_a_at) / Fold change /veh FAM167A (11723789_a_at) / RFU FAM26E (11764081_at) / Fold change /veh FAM26E (11764081_at) / RFU ISYNA1 (11749810_s_at) / Fold change /veh ISYNA1 (11749810_s_at) / RFU ACY1 (11761880_at) / Fold change /veh ACY1 (11761880_at) / RFU 11764098_at / Fold change /veh 11764098_at / RFU SAMD14 (11745864_x_at) / Fold change /veh SAMD14 (11745864_x_at) / RFU NPB (11741838_a_at) / Fold change /veh NPB (11741838_a_at) / RFU TMPRSS6 (11731388_a_at) / Fold change /veh TMPRSS6 (11731388_a_at) / RFU KRTAP10-2 (11738614_at) / Fold change /veh KRTAP10-2 (11738614_at) / RFU ARHGAP8 /// PRR5-ARHGAP8 (11727945_x_at) / Fold change /veh ARHGAP8 /// PRR5-ARHGAP8 (11727945_x_at) / RFU KRTAP5-7 /// NADSYN1 (11734609_at) / Fold change /veh KRTAP5-7 /// NADSYN1 (11734609_at) / RFU RASL12 (11751679_a_at) / Fold change /veh RASL12 (11751679_a_at) / RFU CDKN2B (11736163_a_at) / Fold change /veh CDKN2B (11736163_a_at) / RFU PRF1 (11729649_at) / Fold change /veh PRF1 (11729649_at) / RFU, ZNF638 /// ZNF638-IT1 / Fold change vs veh, ZNF638 /// ZNF638-IT1 / RFU, PANK3 / Fold change vs veh, PANK3 / RFU, SH3YL1 / Fold change vs veh, SH3YL1 / RFU, ZEB2 / Fold change vs veh, ZEB2 / RFU, NRIP1 / Fold change vs veh, NRIP1 / RFU, PTTG1IP / Fold change vs veh, PTTG1IP / RFU, CAPN2 / Fold change vs veh, CAPN2 / RFU, MED14 / Fold change vs veh, MED14 / RFU, SNORA58 / Fold change vs veh, SNORA58 / RFU, C1orf63 / Fold change vs veh, C1orf63 / RFU, LRRFIP1 / Fold change vs veh, LRRFIP1 / RFU, NDUFAF7 / Fold change vs veh, NDUFAF7 / RFU, SLC12A2 / Fold change vs veh, SLC12A2 / RFU, IBTK / Fold change vs veh, IBTK / RFU, ESF1 / Fold change vs veh, ESF1 / Fold change vs veh, TMEM50B / RFU, TAOK1 / Fold change vs veh, TAOK1 / RFU, ACBD3 / Fold change vs veh, ACBD3 / RFU, TMA16 / Fold change vs veh, TMA16 / RFU, RWDD3 / Fold change vs veh, RWDD3 / RFU, BCAT1 / Fold change vs veh, BCAT1 / RFU, EDEM3 / Fold change vs veh, EDEM3 / RFU, TMEM33 / Fold change vs veh, TMEM33 / RFU, WDR75 / Fold change vs veh, WDR75 / RFU, AHCTF1 / Fold change vs veh, AHCTF1 / RFU, TFRC / Fold change vs veh, TFRC / RFU, ZDHHC17 / Fold change vs veh, ZDHHC17 / RFU, NOM1 / Fold change vs veh, NOM1 / RFU, ARL8B / Fold change vs veh, ARL8B / RFU, ZBTB11 / Fold change vs veh, ZBTB11 / RFU, TAMM41 / Fold change vs veh, TAMM41 / RFU, KIAA1704 /// LOC100996395 / Fold change vs veh, KIAA1704 /// LOC100996395 / RFU, ING1 / Fold change vs veh, ING1 / RFU, TRMT61B / Fold change vs veh, TRMT61B / RFU, FUBP3 / Fold change vs veh, FUBP3 / RFU, TP53 / Fold change vs veh, TP53 / RFU, TNKS2 / Fold change vs veh, TNKS2 / RFU, ZFP14 / Fold change vs veh, ZFP14 / RFU, ACTR2 / Fold change vs veh, ACTR2 / RFU, PPP3R1 / Fold change vs veh, PPP3R1 / RFU, PIK3R1 / Fold change vs veh, PIK3R1 / RFU, HNRNPA1 / Fold change vs veh, HNRNPA1 / RFU, RNF170 / Fold change vs veh, RNF170 / RFU, ZNF28 / Fold change vs veh, ZNF28 / RFU, RNGTT / Fold change vs veh, RNGTT / RFU, OGT / Fold change vs veh, OGT / RFU, BRD1 / Fold change vs veh, BRD1 / RFU, MARS / Fold change vs veh, MARS / RFU, ZNF655 / Fold change vs veh, ZNF655 / RFU, FAHD1 / Fold change vs veh, FAHD1 / RFU, BDP1 / Fold change vs veh, BDP1 / RFU, LRRCC1 / Fold change vs veh, LRRCC1 / RFU, ARID1A / Fold change vs veh, ARID1A / RFU, ZNF146 / Fold change vs veh, ZNF146 / RFU, ZNF330 / Fold change vs veh, ZNF330 / RFU, GPN3 / Fold change vs veh, GPN3 / RFU, C9orf123 / Fold change vs veh, C9orf123 / RFU, N4BP2L2 / Fold change vs veh, N4BP2L2 / RFU, ARFIP1 / Fold change vs veh, ARFIP1 / RFU, FAM179B / Fold change vs veh, FAM179B / RFU, BCL10 / Fold change vs veh, BCL10 / RFU, UHRF1BP1L / Fold change vs veh, UHRF1BP1L / RFU, BET1 / Fold change vs veh, BET1 / RFU, CNOT2 / Fold change vs veh, CNOT2 / RFU, ZNF268 / Fold change vs veh, ZNF268 / Fold change vs veh, ZNF507 / RFU, DGCR2 / Fold change vs veh, DGCR2 / RFU, WDSUB1 / Fold change vs veh, WDSUB1 / Fold change vs veh, HSP90B1 /// MIR3652 / RFU, ADSS / Fold change vs veh, ADSS / RFU, GK / Fold change vs veh, GK / RFU, ZNF148 / Fold change vs veh, ZNF148 / RFU, TAF9 / Fold change vs veh, TAF9 / RFU, SLC1A5 / Fold change vs veh, SLC1A5 / RFU, SLMO2 / Fold change vs veh, SLMO2 / RFU, ABCC4 / Fold change vs veh, ABCC4 / RFU, LOC101060439 /// RAP1B / Fold change vs veh, LOC101060439 /// RAP1B / RFU, RFX7 / Fold change vs veh, RFX7 / RFU, GTPBP10 / Fold change vs veh, GTPBP10 / RFU, CNEP1R1 / Fold change vs veh, CNEP1R1 / RFU, BIVM-ERCC5 /// ERCC5 / Fold change vs veh, BIVM-ERCC5 /// ERCC5 / RFU, ILF3 / Fold change vs veh, ILF3 / RFU 11762660_at / Fold change /veh 11762660_at / RFU VCAN (11757783_s_at) / Fold change /veh VCAN (11757783_s_at) / RFU DDX43 (11728927_at) / Fold change /veh DDX43 (11728927_at) / RFU KRT8 (11758188_x_at) / Fold change /veh KRT8 (11758188_x_at) / RFU NKD1 (11759106_at) / Fold change /veh NKD1 (11759106_at) / RFU SRD5A1 (11742802_a_at) / Fold change /veh SRD5A1 (11742802_a_at) / RFU TPSAB1 /// TPSB2 (11721975_s_at) / Fold change /veh TPSAB1 /// TPSB2 (11721975_s_at) / RFU GSTM3 (11746129_a_at) / Fold change /veh GSTM3 (11746129_a_at) / RFU IL23R (11737362_x_at) / Fold change /veh IL23R (11737362_x_at) / RFU TMEM51 (11727254_a_at) / Fold change /veh TMEM51 (11727254_a_at) / RFU PIWIL2 (11732686_x_at) / Fold change /veh PIWIL2 (11732686_x_at) / RFU ORM1 (11744905_x_at) / Fold change /veh ORM1 (11744905_x_at) / RFU CCDC152 (11743942_at) / Fold change /veh CCDC152 (11743942_at) / RFU ECM1 (11717891_a_at) / Fold change /veh ECM1 (11717891_a_at) / RFU IL23R (11748794_a_at) / Fold change /veh IL23R (11748794_a_at) / RFU TNFAIP8L3 (11732012_x_at) / Fold change /veh TNFAIP8L3 (11732012_x_at) / RFU MBOAT4 (11741988_at) / Fold change /veh MBOAT4 (11741988_at) / RFU 11764193_at / Fold change /veh 11764193_at / RFU TMEM53 (11763286_at) / Fold change /veh TMEM53 (11763286_at) / RFU MAGEB2 (11727129_at) / Fold change /veh MAGEB2 (11727129_at) / RFU TMEM200A (11744735_a_at) / Fold change /veh TMEM200A (11744735_a_at) / RFU CCDC152 (11751479_a_at) / Fold change /veh CCDC152 (11751479_a_at) / RFU FAM211A (11726209_a_at) / Fold change /veh FAM211A (11726209_a_at) / RFU RGS16 (11746705_a_at) / Fold change /veh RGS16 (11746705_a_at) / RFU VCAN (11755009_s_at) / Fold change /veh VCAN (11755009_s_at) / RFU RHOB (11743442_s_at) / Fold change /veh RHOB (11743442_s_at) / RFU RGS16 (11720943_a_at) / Fold change /veh RGS16 (11720943_a_at) / RFU RGS16 (11720944_at) / Fold change /veh RGS16 (11720944_at) / RFU, VPS4B / Fold change vs veh, VPS4B / RFU, CREB1 / Fold change vs veh, CREB1 / RFU, DNAJC13 / Fold change vs veh, DNAJC13 / RFU, GNAQ / Fold change vs veh, GNAQ / RFU, CDK5R1 / Fold change vs veh, CDK5R1 / RFU, ZRANB3 / Fold change vs veh, ZRANB3 / RFU, CUL4A / Fold change vs veh, CUL4A / RFU, CCNY / Fold change vs veh, CCNY / RFU, UFL1 / Fold change vs veh, UFL1 / RFU, COG3 / Fold change vs veh, COG3 / RFU, DIAPH2 / Fold change vs veh, DIAPH2 / RFU, SKA2 / Fold change vs veh, SKA2 / RFU, AFF3 / Fold change vs veh, AFF3 / RFU, LMF1 / Fold change vs veh, LMF1 / RFU, IPO11 / Fold change vs veh, IPO11 / RFU, DFFB / Fold change vs veh, DFFB / RFU, FOXP1 / Fold change vs veh, FOXP1 / RFU, CARD8 / Fold change vs veh, CARD8 / RFU, STRN3 / Fold change vs veh, STRN3 / RFU, ADK / Fold change vs veh, ADK / RFU, RASSF2 / Fold change vs veh, RASSF2 / RFU, WIPF1 / Fold change vs veh, WIPF1 / RFU, LARP1B / Fold change vs veh, LARP1B / RFU, RASA1 / Fold change vs veh, RASA1 / RFU, RB1 / Fold change vs veh, RB1 / RFU, PPFIA1 / Fold change vs veh, PPFIA1 / RFU, MAT2A / Fold change vs veh, MAT2A / RFU, CCT5 / Fold change vs veh, CCT5 / RFU, WDR92 / Fold change vs veh, WDR92 / RFU, CUX1 / Fold change vs veh, CUX1 / RFU, TTC7A / Fold change vs veh, TTC7A / RFU, TMEM135 / Fold change vs veh, TMEM135 / RFU, DEPTOR / Fold change vs veh, DEPTOR / RFU, CPM / Fold change vs veh, CPM / RFU, DNAJB6 / Fold change vs veh, DNAJB6 / RFU, CACNA2D3 / Fold change vs veh, CACNA2D3 / RFU, DTX4 / Fold change vs veh, DTX4 / RFU, TFCP2 / Fold change vs veh, TFCP2 / RFU, GMCL1 /// GMCL1P1 / Fold change vs veh, GMCL1 /// GMCL1P1 / RFU, AEBP2 / Fold change vs veh, AEBP2 / RFU, SNHG1 /// SNORD22 /// SNORD25 /// SNORD26 /// SNORD27 /// SNORD28 /// SNORD29 /// SNORD31 / Fold change vs veh, SNHG1 /// SNORD22 /// SNORD25 /// SNORD26 /// SNORD27 /// SNORD28 /// SNORD29 /// SNORD31 / Fold change (Aza/veh), C12orf56 (ProbeSet 11735607_a_at) / Fold change (ACY-1035/veh), C12orf56 (ProbeSet 11735607_a_at) / Fold change (Aza/veh), FGFR1OP (ProbeSet 11751329_s_at) / Fold change (ACY-1035/veh), FGFR1OP (ProbeSet 11751329_s_at) / Fold change (Aza/veh), VPS36 (ProbeSet 11739960_a_at) / Fold change (ACY-1035/veh), VPS36 (ProbeSet 11739960_a_at) / RFU SYPL1 (11715823_x_at) / Fold change /veh SYPL1 (11715823_x_at) / RFU IGFBP7 (11715501_s_at) / Fold change /veh IGFBP7 (11715501_s_at) / RFU REEP3 (11722064_at) / Fold change /veh REEP3 (11722064_at) / RFU IGLL1 (11728026_x_at) / Fold change /veh IGLL1 (11728026_x_at): dose or concentration left out as unconfirmed
Conditions: ProbeSet 11728314_at; LIST B

Nc1ncn([C@@H]2O[C@H](CO)[C@@H](O)[C@H]2O)c(=O)n1 [azacitidine]
RFU, ZNF148: 202.48 RFU
